Measured values reported in patent publication US10703764B2, “Benzopiperazine compositions as BET bromodomain inhibitors” (FORMA Therapeutics, Inc., priority 2013, dated 2020).

How the values were obtained:
BRD4 BD1 = target: T1, BRD4 BD1 (Homo sapiens, UniProt O60885); assay: AlphaScreen binding assay, BRD4 Bromodomain 1
T1 construct: made in house
Outline: (§1)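 An AlphaScreen competition format was used with His-BRD4 BD1 or BD2 and biotin-H4 K5/8/12/16-acetyl peptide, each at matched final levels of 50 nM (BD1) or 100 nM (BD2). Incubation in HEPES/NaCl buffer with 0.1% BSA and 0.01% Triton X-100 ran ≥1 h before IC50 determination.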

MV4-11 cells = assay: Oncology cell growth assay (3-day proliferation, CellTiter-Glo); assay type: cell-based; conditions: Homo sapiens, MV4-11, 72 h, AML cell line MV4-11, 72 hours, compounds grouped by IC50 range, read-out: MV4-11 IC50 (inhibition of proliferation, gIC50)
Outline: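 72 h, 37° C, 5% CO2; MV4-11, 3000 cells/well, RPMI 1640 + 10% FBS. Compound final 10, 3.3, 1.1, 0.37, 0.12, 0.041, 0.013, 0.0045 μM. Readout CellTiter-Glo luminescence; gIC50 by 4-parameter logistic fit, normalised to DMSO and no-cell background.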

BRD4 BD2 = target: T2, BRD4 BD2 (Homo sapiens, UniProt O60885); assay: AlphaScreen binding assay, BRD4 Bromodomain 2
T2 construct: made in house
Outline: as §1

COC(=O)N1c2ccc(-c3cnn(CC4(C)COC4)c3)cc2N(C(=O)OC(C)C)C[C@@H]1C [Example I-637]
IC50 (BRD4 BD1): 100 to 1000 nM | IC50 (MV4-11 cells): 100 to 500 nM | IC50 (BRD4 BD2): 50 to 500 nM

CC(C)OC(=O)N1C[C@H](C)N(C(=O)C2CC2)c2ccc(-c3ccc(C(=O)N4CC(O)C4)cc3)cc21 [Example I-578]
IC50 (BRD4 BD1): 100 to 1000 nM | IC50 (MV4-11 cells): 100 to 500 nM | IC50 (BRD4 BD2): 50 to 500 nM

COc1cc(-c2ccc3c(c2)N(C(=O)c2ccco2)C[C@H](C)N3C(C)=O)ccn1 [Example I-863]
IC50 (BRD4 BD1): 1000 to 10000 nM | IC50 (MV4-11 cells): > 500 nM | IC50 (BRD4 BD2): 50 to 500 nM

CCOC(=O)N1C[C@H](C)N(C(C)=O)c2ccc(-c3cccc(S(C)(=O)=O)c3)cc21 [Example I-1052]
IC50 (BRD4 BD1): 1000 to 10000 nM | IC50 (MV4-11 cells): > 500 nM | IC50 (BRD4 BD2): 50 to 500 nM

CC(=O)N1c2ccc(-c3ccc(N4CCOCC4)cc3)cc2N(C(=O)c2ccco2)C[C@@H]1C [Example I-850]
IC50 (BRD4 BD1): 100 to 1000 nM | IC50 (MV4-11 cells): 100 to 500 nM | IC50 (BRD4 BD2): < 50 nM

CC(=O)N1c2ccc(-c3cnn(CC(C)(C)O)c3)cc2N(C(=O)OC2CCC(F)(F)CC2)C[C@@H]1C [Example I-35, (S)-4,4-difluorocyclohexyl 4-acetyl-7-(1-(2-hydroxy-2-methylpropyl)-1H-pyrazol-4-yl)-3-methyl-3,4-dihydroquinoxaline-1(2H)-carboxylate]
IC50 (BRD4 BD1): 100 to 1000 nM | IC50 (MV4-11 cells): 100 to 500 nM | IC50 (BRD4 BD2): 50 to 500 nM

CC(=O)N1c2ccc(-c3cnn(CCC#N)c3)cc2N(C(=O)Oc2ccccn2)C[C@@H]1C [Example I-1326]
IC50 (BRD4 BD1): 100 to 1000 nM | IC50 (MV4-11 cells): 100 to 500 nM | IC50 (BRD4 BD2): 50 to 500 nM

COC(=O)N1c2ccc(-c3cnn(CC(F)(F)F)c3)cc2N(C(=O)OC(C)C)C[C@@H]1C [Example I-636]
IC50 (BRD4 BD1): 100 to 1000 nM | IC50 (MV4-11 cells): > 500 nM | IC50 (BRD4 BD2): > 500 nM

CC(=O)N1c2ccc(-c3ccc(NS(=O)(=O)C4CC4)cc3)cc2N(C(=O)OC(C)C)C[C@@H]1C [Example I-347]
IC50 (BRD4 BD1): < 100 nM | IC50 (MV4-11 cells): < 100 nM | IC50 (BRD4 BD2): < 50 nM

CCN(CC)S(=O)(=O)c1cc(-c2ccc3c(c2)N(C(=O)C2CCC2)C[C@H](C)N3C(C)=O)ccc1OC [Example I-1113]
IC50 (BRD4 BD1): 1000 to 10000 nM | IC50 (MV4-11 cells): 100 to 500 nM | IC50 (BRD4 BD2): 50 to 500 nM

CC(=O)N1c2ccc(-c3cccc(S(N)(=O)=O)c3)cc2N(C(=O)OC(C)C)C[C@@H]1C [Example I-1042]
IC50 (BRD4 BD1): 1000 to 10000 nM | IC50 (MV4-11 cells): 100 to 500 nM | IC50 (BRD4 BD2): 50 to 500 nM

CC(=O)N1c2ccc(-c3ccc(C(=O)N4CCOCC4)cc3)cc2N(C(=O)c2ccco2)C[C@@H]1C [Example I-283]
IC50 (BRD4 BD1): 1000 to 10000 nM | IC50 (MV4-11 cells): 100 to 500 nM | IC50 (BRD4 BD2): < 50 nM

COc1ccc(OC(=O)N2C[C@H](C)N(C(C)=O)c3ccc(-c4cnn(C5CC5)c4)cc32)cc1 [Example I-263]
IC50 (BRD4 BD1): 100 to 1000 nM | IC50 (MV4-11 cells): 100 to 500 nM | IC50 (BRD4 BD2): < 50 nM

CCN(CC)S(=O)(=O)c1cc(-c2ccc3c(c2)N(C(=O)OC2CCCCC2)C[C@H](C)N3C(C)=O)ccc1OC [Example I-1257]
IC50 (BRD4 BD1): 100 to 1000 nM | IC50 (MV4-11 cells): 100 to 500 nM | IC50 (BRD4 BD2): 50 to 500 nM

CC(=O)N1c2ccc(-c3ccc(S(C)(=O)=O)cc3)cc2N(C(=O)OC2CC(F)(F)C2)C[C@@H]1C [Example I-5, (S)-3,3-difluorocyclobutyl 4-acetyl-3-methyl-7-(4-(methylsulfonyl)phenyl)-3,4-dihydroquinoxaline-1(2H)-carboxylate]
IC50 (BRD4 BD1): 100 to 1000 nM | IC50 (MV4-11 cells): 100 to 500 nM | IC50 (BRD4 BD2): 50 to 500 nM

CC(=O)Nc1cc2c(cc1-c1cnn(C3CC3)c1)N(C(=O)OC(C)C)C[C@H](C)N2C(C)=O [Example I-214, Isopropyl (S)-6-acetamido-4-acetyl-7-(1-cyclopropyl-1H-pyrazol-4-yl)-3-methyl-3,4-dihydroquinoxaline-1(2H)-carboxylate]
IC50 (BRD4 BD1): 100 to 1000 nM | IC50 (MV4-11 cells): 100 to 500 nM | IC50 (BRD4 BD2): 50 to 500 nM

CC(=O)N1c2ccc(-c3nnc(N)s3)cc2N(C(=O)c2ccco2)C[C@@H]1C [Example I-430]
IC50 (BRD4 BD1): 1000 to 10000 nM | IC50 (MV4-11 cells): 100 to 500 nM | IC50 (BRD4 BD2): 50 to 500 nM

CC(=O)N1c2ccc(-c3ccc(S(C)(=O)=O)cc3)cc2N(C(=O)c2cc3cc(O)ccc3[nH]2)CC1C (stereo not drawn) [Example I-786]
IC50 (BRD4 BD1): 1000 to 10000 nM | IC50 (MV4-11 cells): > 500 nM | IC50 (BRD4 BD2): 50 to 500 nM

COC(=O)N1c2ccc(-c3cnn(CCn4ccnc4)c3)cc2N(C(=O)OC(C)C)C[C@@H]1C [Example I-627]
IC50 (BRD4 BD1): 100 to 1000 nM | IC50 (MV4-11 cells): > 500 nM | IC50 (BRD4 BD2): 50 to 500 nM

CC(=O)N1c2ccc(-c3ccc4c(c3)N(S(C)(=O)=O)CCC4)cc2N(C(=O)C2CC2)C[C@@H]1C [Example I-1184]
IC50 (BRD4 BD1): 100 to 1000 nM | IC50 (MV4-11 cells): 100 to 500 nM | IC50 (BRD4 BD2): 50 to 500 nM

CC(=O)N1c2ccc(-c3cccc(S(=O)(=O)C4CC4)c3)cc2N(C(=O)OC2CCCCC2)C[C@@H]1C [Example I-1243]
IC50 (BRD4 BD1): 100 to 1000 nM | IC50 (MV4-11 cells): 100 to 500 nM | IC50 (BRD4 BD2): 50 to 500 nM

CC(=O)N1c2ccc(-c3cnn(C4CC4)c3)cc2N(C(=O)Oc2cccc3nccnc23)C[C@@H]1C [Example I-1204]
IC50 (BRD4 BD1): 100 to 1000 nM | IC50 (MV4-11 cells): < 100 nM | IC50 (BRD4 BD2): < 50 nM

CC(=O)N1c2ccc(-c3cc(Cl)cc(S(C)(=O)=O)c3)cc2N(C(=O)OC2CCCCC2)C[C@@H]1C [Example I-1247]
IC50 (BRD4 BD1): 1000 to 10000 nM | IC50 (MV4-11 cells): > 500 nM | IC50 (BRD4 BD2): > 500 nM

CC(=O)N1c2ccc(-c3ccc(S(N)(=O)=O)cc3)cc2N(C(=O)C2CCC2)C[C@@H]1C [Example I-1067]
IC50 (BRD4 BD1): > 10000 nM | IC50 (MV4-11 cells): > 500 nM | IC50 (BRD4 BD2): 50 to 500 nM

CNC(=O)Nc1cc2c(cc1-c1cnn(C3CC3)c1)N(C(=O)OC(C)C)C[C@H](C)N2C(C)=O [Example I-215, Isopropyl (S)-4-acetyl-7-(1-cyclopropyl-1H-pyrazol-4-yl)-3-methyl-6-(3-methylureido)-3,4-dihydroquinoxaline-1(2H)-carboxylate]
IC50 (BRD4 BD1): 100 to 1000 nM | IC50 (MV4-11 cells): 100 to 500 nM | IC50 (BRD4 BD2): 50 to 500 nM

COc1ncc(Cl)cc1OC(=O)N1C[C@H](C)N(C(C)=O)c2ccc(-c3cnn(C4CC4)c3)cc21 [Example I-1207]
IC50 (BRD4 BD1): 100 to 1000 nM | IC50 (MV4-11 cells): > 500 nM | IC50 (BRD4 BD2): 50 to 500 nM

CC(=O)N1c2ccc(-c3ccc(S(=O)(=O)CCO)cc3)cc2N(C(=O)c2ccco2)C[C@@H]1C [Example I-423]
IC50 (BRD4 BD1): 1000 to 10000 nM | IC50 (MV4-11 cells): 100 to 500 nM | IC50 (BRD4 BD2): 50 to 500 nM

CC(=O)N1c2ccc(-c3ccc(NS(C)(=O)=O)cc3)cc2N(C(=O)OC2CC(F)(F)C2)C[C@@H]1C [Example I-30, (S)-3,3-difluorocyclobutyl 4-acetyl-3-methyl-7-(4-(methylsulfonamido)phenyl)-3,4-dihydroquinoxaline-1(2H)-carboxylate]
IC50 (BRD4 BD1): 100 to 1000 nM | IC50 (MV4-11 cells): > 500 nM | IC50 (BRD4 BD2): > 500 nM

CC(=O)N1c2ccc(-c3ccc(S(=O)(=O)N(C)C)cc3)cc2N(C(=O)OC2CCCCC2)C[C@@H]1C [Example I-1263]
IC50 (BRD4 BD1): 100 to 1000 nM | IC50 (MV4-11 cells): 100 to 500 nM | IC50 (BRD4 BD2): 50 to 500 nM

CC(=O)N1c2ccc(-c3cnn(C4CC4)c3)cc2N(C(=O)Oc2ccc3ccncc3c2)C[C@@H]1C [Example I-1206]
IC50 (BRD4 BD1): 100 to 1000 nM | IC50 (MV4-11 cells): 100 to 500 nM | IC50 (BRD4 BD2): < 50 nM

CC(=O)N1c2ccc(-c3ccc(S(=O)(=O)C(C)C)cc3)cc2N(C(=O)OC(C)C)C[C@@H]1C [Example I-1065]
IC50 (BRD4 BD1): 100 to 1000 nM | IC50 (MV4-11 cells): 100 to 500 nM | IC50 (BRD4 BD2): 50 to 500 nM

CC(C)OC(=O)N1C[C@H](C)N(C(=O)C2CC2)c2ccc(-c3cnn(CC4CCOCC4)c3)cc21 [Example I-623]
IC50 (BRD4 BD1): 100 to 1000 nM | IC50 (MV4-11 cells): 100 to 500 nM | IC50 (BRD4 BD2): 50 to 500 nM

CC(=O)N1c2cc(NS(C)(=O)=O)ccc2N(C(=O)OC(C)C)C[C@@H]1C [Example I-201, Isopropyl (S)-4-acetyl-3-methyl-6-(methylsulfonamido)-3,4-dihydro quinoxaline-1(2H)-carboxylate]
IC50 (BRD4 BD1): > 10000 nM | IC50 (MV4-11 cells): > 500 nM | IC50 (BRD4 BD2): > 500 nM

CC(=O)N1c2ccc(-c3cccc(S(=O)(=O)C4CC4)c3)cc2N(C(=O)OC2CCOCC2)C[C@@H]1C [Example I-1244]
IC50 (BRD4 BD1): 100 to 1000 nM | IC50 (MV4-11 cells): 100 to 500 nM | IC50 (BRD4 BD2): 50 to 500 nM

CC(=O)N1c2ccc(-c3cnn(CCC#N)c3)cc2N(C(=O)Oc2ccc(F)cc2F)C[C@@H]1C [Example I-1012]
IC50 (BRD4 BD1): 100 to 1000 nM | IC50 (MV4-11 cells): 100 to 500 nM | IC50 (BRD4 BD2): < 50 nM

CC(C)OC(=O)N1C[C@H](C)N(C(=O)C2CC2)c2ccc(-c3ccc(C(=O)N4CC[C@H](N(C)C)C4)cc3)cc21 [Example I-566]
IC50 (BRD4 BD1): 100 to 1000 nM | IC50 (MV4-11 cells): 100 to 500 nM | IC50 (BRD4 BD2): 50 to 500 nM
